Broadly, the melting point is the temperature, or range, at which the solid turns liquid.

We go through 13 molecules from patent US20050282843A1, “Therapeutic applications of 2-substituted 4-heteroarylpyrimidines” (priority 2002, published 2005).

Where two headings read alike, the source gives them in different places.

Data set [1] addresses GSK-3β (Oryctolagus cuniculus, UniProt G1T8E2). In words: GSK-3β kinase assay (phosphorylation of CREB phosphopeptide). It counts as biochemical, rabbit. As for the experimental part: (§1) GSK-3 was obtained from New England Biolabs (UK) Ltd., Hitchin, Herts. The recombinant enzyme was isolated from a strain of E. coli that carries a clone expressing GSK-3β derived from a rabbit skeletal muscle cDNA library [Wang, Q. M.; Fiol, C. […] The samples were transferred to 96-well p81 filter plates (Whatman Polyfiltronics, Kent, UK), and the plates were washed 4 times with 200 μL/well of 75 mM aq orthophosphoric acid.

For data set [2], the system named is GSK-3β. The data set is described as above. It counts as biochemical, rabbit. As to conditions: ratio of IC50 values. The protocol: as §1
The target in a further data set is T1, CDK2/cyclin E (Homo sapiens, UniProt P24941).
T1 construct: His6; made in house; host or cells: Sf9 insect cells (baculovirus)
In words: CDK/cyclin kinase assay, CDK2/cyclin E. It counts as biochemical. As to conditions: read-out: Kinase inhibition IC50 CDK2/E.

The next data set has as its target CDK4/cyclin D1 (Homo sapiens, UniProt P11802). In words: CDK/cyclin kinase assay, CDK4/cyclin D1.
In data set [3] the test system is cellular glycogen synthase activity in HEK293 cells. Kind of data set: Glycogen synthase (GS) assay in HEK293 cells. The format is cell-based, human. The following applies: for -Fold induction of GS activity: In HEK293 cells at [compound] = 5 μM, over control samples. The protocol:
(§2) Cells on 10 cm dishes (Human Embryonic Kidney (HEK) 293 cells, L6 rat myocytes, or 3T3 mouse adipocytes) were treated with different concentrations of GSK3-inhibitors or DMSO vehicle for 90 min. Incubation medium was removed and cells were washed with ice-cold phosphate-buffered saline (PBS) prior to lysis on ice in 50 mM HEPES, pH 7.5, 10 mM EDTA, 100 mM NaF, 5 mM DTT, protease inhibitor cocktail (Sigma). After a freeze/thaw cycle the samples are sonicated for 10 sec and centrifuged at 15,000 g for 10 min at 4° C. Lysate supernatants were snap-frozen on liquid nitrogen and stored at −80° C. Lysates were assayed for glycogen synthase activity in buffer (50 mM Tris-HCl, pH 7.8, 20 mM EDTA, 25 mM NaF, 5 mM DTT, 1% glycogen, 0.3 mM UDP-glucose and 0.06 μCi of [^14C]-UDP-glucose in the presence of 0.1 or 10 mM glucose-6-phosphate. The reaction was carried out for 30 min at 30° C. 70 μL of the reaction mixture (total volume 90 μL) were transferred to a GFC 96-well filter plate (bottom sealed with foil), containing 140 μL 96% ethanol. The GFC plate was incubated for 1 h on ice and than washed with 66% ethanol. To each well 100 μL scintillant liquid was added and the radioactivity of the samples was measured using a scintillation counter (Topcount, HP). Data are expressed as -fold increase in glycogen synthase activity ratios over those of control samples.

Data set [4] relates to cellular glycogen synthase activity in L6 rat myocyte cells. Kind of data set: Glycogen synthase (GS) assay in L6 rat myocytes. It counts as cell-based. The protocol: Rat skeletal muscle myoblasts L6/G8.C5 were seeded at 2.4×10^5 cells per 10 cm dish in DMEM 10% foetal calf serum (FCS), containing penicillin/streptomycin. When 90% confluence was reached the medium was exchanged with α MEM, supplemented with 2% FCS and penicillin/streptomycin. Medium was refreshed every 48 hours and 4-7 days later the myocytes were formed.
as §2

Data set [5] concerns cellular glycogen synthase activity in 3T3 mouse adipocyte cells. Kind of data set: Glycogen synthase (GS) assay in 3T3 mouse adipocytes. The format is cell-based. As for the experimental part: Mouse pre-adipocytes 3T3-F442A were seeded at 9×10^5 cells per 10 cm dish in DMEM 10% FCS, containing penicillin/streptomycin. When 90% confluent, the same medium was supplemented with […] insulin. After 3-5 days (when most cells were differentiated) insulin was removed and 4 days later the cells were ready to use.
as §2

Another data set has as its target CDK2/cyclin A (Homo sapiens, UniProt P24941). Kind of data set: CDK/cyclin kinase assay, CDK2/cyclin A.
A further data set concerns the target CDK1/cyclin B1 (Homo sapiens, UniProt P06493). Kind of data set: CDK/cyclin kinase assay, CDK1/cyclin B1.
Setting [6] is: read-out: Kinase inhibition IC50 GSK3β.
Where [7] appears, read: read-out: IC50 value as measured by a GSK3β kinase assay.

Chain of CDK1/cyclin B1 (P06493 whole entry): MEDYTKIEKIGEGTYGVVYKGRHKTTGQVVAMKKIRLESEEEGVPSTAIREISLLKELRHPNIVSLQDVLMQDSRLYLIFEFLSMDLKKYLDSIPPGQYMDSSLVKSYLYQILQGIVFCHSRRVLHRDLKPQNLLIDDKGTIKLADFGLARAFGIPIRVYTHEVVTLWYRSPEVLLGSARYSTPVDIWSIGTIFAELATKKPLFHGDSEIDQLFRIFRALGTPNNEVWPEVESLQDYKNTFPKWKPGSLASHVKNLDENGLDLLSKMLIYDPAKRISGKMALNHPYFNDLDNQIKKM
Chain of CDK1/cyclin B1 (P14635 whole entry partner): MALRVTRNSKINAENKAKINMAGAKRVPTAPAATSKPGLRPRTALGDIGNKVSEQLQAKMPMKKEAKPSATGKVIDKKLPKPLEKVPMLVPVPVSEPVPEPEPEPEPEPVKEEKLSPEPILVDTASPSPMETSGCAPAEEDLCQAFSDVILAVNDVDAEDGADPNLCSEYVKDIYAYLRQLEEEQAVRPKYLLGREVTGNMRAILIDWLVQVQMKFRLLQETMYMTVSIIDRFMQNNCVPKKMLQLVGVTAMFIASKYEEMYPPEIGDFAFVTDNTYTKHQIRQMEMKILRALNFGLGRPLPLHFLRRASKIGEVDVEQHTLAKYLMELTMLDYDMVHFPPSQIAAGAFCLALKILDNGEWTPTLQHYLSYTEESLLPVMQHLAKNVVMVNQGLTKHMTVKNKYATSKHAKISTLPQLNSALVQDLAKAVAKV
Chain of CDK4/cyclin D1 (P11802 whole entry): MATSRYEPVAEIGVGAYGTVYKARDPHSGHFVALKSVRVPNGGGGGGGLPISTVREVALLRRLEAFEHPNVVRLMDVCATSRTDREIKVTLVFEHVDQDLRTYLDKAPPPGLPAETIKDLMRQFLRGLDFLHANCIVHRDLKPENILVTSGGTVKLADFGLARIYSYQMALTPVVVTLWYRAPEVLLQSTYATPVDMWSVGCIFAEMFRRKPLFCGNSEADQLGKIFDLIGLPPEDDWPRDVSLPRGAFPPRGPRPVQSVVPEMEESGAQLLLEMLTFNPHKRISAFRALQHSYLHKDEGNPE
Chain of CDK4/cyclin D1 (P24385 whole entry partner): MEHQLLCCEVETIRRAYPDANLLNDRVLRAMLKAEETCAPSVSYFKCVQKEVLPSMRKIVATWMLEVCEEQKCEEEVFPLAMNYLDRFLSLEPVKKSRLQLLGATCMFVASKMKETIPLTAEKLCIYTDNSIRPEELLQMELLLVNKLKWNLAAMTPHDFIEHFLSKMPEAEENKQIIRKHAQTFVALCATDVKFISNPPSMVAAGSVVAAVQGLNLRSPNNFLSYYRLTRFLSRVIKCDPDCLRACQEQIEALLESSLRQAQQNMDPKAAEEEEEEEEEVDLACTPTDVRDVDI
Chain of GSK-3β (Oryctolagus cuniculus, UniProt G1T8E2) (G1T8E2 1-432): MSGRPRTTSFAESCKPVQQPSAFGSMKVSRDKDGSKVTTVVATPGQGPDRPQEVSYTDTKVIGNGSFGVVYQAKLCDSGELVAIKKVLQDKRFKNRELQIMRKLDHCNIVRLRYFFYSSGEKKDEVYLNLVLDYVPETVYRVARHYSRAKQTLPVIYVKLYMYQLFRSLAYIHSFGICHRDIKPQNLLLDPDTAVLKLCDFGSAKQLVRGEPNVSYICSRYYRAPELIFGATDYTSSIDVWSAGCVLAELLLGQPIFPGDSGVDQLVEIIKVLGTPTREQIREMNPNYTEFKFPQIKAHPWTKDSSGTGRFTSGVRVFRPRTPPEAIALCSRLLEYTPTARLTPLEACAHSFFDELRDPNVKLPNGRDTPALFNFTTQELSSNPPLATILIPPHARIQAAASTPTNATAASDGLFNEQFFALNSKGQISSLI
Experimental for CDK1/cyclin B1: (§3) His6-tagged recombinant human cyclin-dependant kinases CDK1/cyclin B1, CDK2/cyclin E, CDK2/cyclin A, and CDK4 were expressed in sf9 insect cells using a baculovirus expression system. Recombinant cyclin D1 was expressed in E. coli. […] Kinase assays were performed in 96-well plates using recombinant CDK/cyclins. […] Reactions were stopped on ice, followed by filtration through p81 or GF/C filterplates (for CDK4) (Whatman Polyfiltronics, Kent, UK). After washing 3 times with 75 mM aq orthophosphoric acid, plates were dried, scintillant added and incorporated radioactivity measured in a scintillation counter (TopCount, Packard Instruments, Pangbourne, Berks, UK). Compounds for kinase assays were made up as 10 mM stocks in DMSO and diluted into 10% DMSO in assay buffer.
Experimental for CDK2/cyclin A: as §3
Experimental for CDK2/cyclin E: as §3
Experimental for CDK4/cyclin D1: as §3

Regarding `Cc1[nH]c(C#N)c(C)c1-c1ccnc(Nc2ccc(C(F)(F)F)cc2)n1` [Compound 4, 3,5-Dimethyl-4-[2-(4-trifluoromethyl-phenylamino)-pyrimidin-4-yl]-1H-pyrrole-2-carbonitrile], the melting point was in the range of 195.6 to 198.9 °C. Also, on GSK-3β [1] (setting [6]), the IC50 came to 2400 nM. For the same molecule, the “Selectivity, IC50 (CDK2/E)/IC50 (GSK3β)” value with GSK-3β [2] was 0.1. In addition, the IC50 on CDK2/cyclin E amounted to 180 nM. This molecule also came in with an IC50 against CDK4/cyclin D1 of 2500 nM.

In the case of `Cc1[nH]c(C#N)c(C)c1-c1ccnc(Nc2ccc(I)cc2)n1` [Compound 5, 4-[2-(4-Iodo-phenylamino)-pyrimidin-4-yl]-3,5-dimethyl-1H-pyrrole-2-carbonitrile], the melting point lay within 178.3 to 181.2 °C. Moreover, the IC50 on GSK-3β [1] (setting [6]) was found to be 1500 nM. Besides, the “Selectivity, IC50 (CDK2/E)/IC50 (GSK3β)” value in the data set on GSK-3β [2] is 0.4. Also, the IC50 at CDK2/cyclin E is 550 nM. The molecule further displayed an IC50 against CDK4/cyclin D1 of 1100 nM.

On to `Cc1ccc(Nc2nccc(-c3c(C)[nH]c(C#N)c3C)n2)cc1I` [Compound 8, 4-[2-(3-Iodo-4-methyl-phenylamino)-pyrimidin-4-yl]-3,5-dimethyl-1H-pyrrole-2-carbonitrile], for which the melting point is 189.5 to 191.7 °C. Further, the IC50 at GSK-3β [1] (setting [6]) turned out to be 1800 nM. Further, the “Selectivity, IC50 (CDK2/E)/IC50 (GSK3β)” value in the data set with GSK-3β [2] is on record as 0.5. The IC50 on CDK2/cyclin E came to 860 nM. Also, the IC50 on CDK4/cyclin D1 was found to be 980 nM.

`Cc1cc(Nc2nccc(-c3c(C)[nH]c(C#N)c3C)n2)ccc1Cl` [Compound 9, 4-[2-(4-Chloro-3-methyl-phenylamino)-pyrimidin-4-yl]-3,5-dimethyl-1H-pyrrole-2-carbonitrile] returned a melting point of 194.2 to 197.9 °C. Also, the IC50 at GSK-3β [1] (setting [6]) was found to be 3400 nM. The “Selectivity, IC50 (CDK2/E)/IC50 (GSK3β)” value with GSK-3β [2] turned out to be 0.3. The IC50 at CDK2/cyclin E stood at 1000 nM. The same molecule came in with an IC50 at CDK4/cyclin D1 of 4000 nM.

In turn, `Cc1[nH]c(C#N)c(C)c1-c1ccnc(Nc2ccc(N(C)C)cc2)n1` [Compound 12, 4-[2-(4-Dimethylamino-phenylamino)-pyrimidin-4-yl]-3,5-dimethyl-1H-pyrrole-2-carbonitrile] displayed a melting point of 190.6 to 193.7 °C. For the same molecule, the IC50 at GSK-3β [1] (setting [6]) was found to be 1200 nM. In addition, the “Selectivity, IC50 (CDK2/E)/IC50 (GSK3β)” value with GSK-3β [2] is 0.5. Moreover, at CDK2/cyclin E, the IC50 was 540 nM. For the same molecule, in [3], the “-Fold induction of GS activity” value is 1.2 -fold. Besides, at CDK4/cyclin D1, the IC50 stood at 370 nM.

Regarding `Cc1[nH]c([N+](=O)[O-])c(C)c1-c1ccnc(Nc2ccc(N(C)C)cc2)n1` [Compound 15, N-[4-(2,4-Dimethyl-5-nitro-1H-pyrrole-3-yl)-pyrimidin-2-yl]-N′,N′-dimethyl-benzene-1,4-diamine], the melting point lay within 265 to 268 °C. Besides, the IC50 at GSK-3β [1] (setting [6]) was found to be 950 nM. In addition, the “Selectivity, IC50 (CDK2/E)/IC50 (GSK3β)” value in the data set on GSK-3β [2] was found to be 1.0. Besides, the IC50 at CDK2/cyclin E stood at 960 nM. Besides, the IC50 at CDK4/cyclin D1 stood at 1000 nM.

The molecule `Cc1[nH]c(Br)c(C)c1-c1ccnc(Nc2cccc([N+](=O)[O-])c2)n1` [Compound 17, [4-(5-Bromo-2,4-dimethyl-1H-pyrrole-3-yl)-pyrimidin-2-yl]-(3-nitro-phenyl)-amine] gave a melting point of 198.1 to 203 °C. Also, the IC50 at GSK-3β [1] (setting [7]) is under 1000 nM. The IC50 on GSK-3β [1] (setting [6]) stood at 280 nM. For the same molecule, the “Selectivity, IC50 (CDK2/E)/IC50 (GSK3β)” value in the data set with GSK-3β [2] was found to be 1.3. Besides, the IC50 at CDK2/cyclin E was 370 nM. The molecule further returned an IC50 at CDK4/cyclin D1 of 4000 nM.

Take `Cc1[nH]c([N+](=O)[O-])c(C)c1-c1ccnc(Nc2ccc(N(C)C)c([N+](=O)[O-])c2)n1` [Compound 21, N^4-[4-(2,4-Dimethyl-5-nitro-1H-pyrrole-3-yl)-pyrimidin-2-yl]-N^1,N^1-dimethyl-2-nitro-benzene-1,4-diamine]: the IC50 on GSK-3β [1] (setting [7]) was under 100 nM; on GSK-3β [1] (setting [6]), 40 nM; on CDK2/cyclin E, 140 nM; on CDK2/cyclin A it was 250 nM; against CDK1/cyclin B1 it was 300 nM; at CDK4/cyclin D1, 1020 nM. Moreover, the “Selectivity, IC50 (CDK2/E)/IC50 (GSK3β)” value in the data set with GSK-3β [2] was 3.5. Moreover, the “activity of glycogen synthase, fractional reaction velocity (ratio of activity at 0.1 and 10 mM glucose-6 phosphate)” value is “increased the activity of glycogen synthase” in data set [3] (HEK293 cells, dose-dependent, FIG. 1); “increased the activity of glycogen synthase” in data set [4] (rat myocyte cells, dose-dependent, FIG. 1); “increased the activity of glycogen synthase” in [5] (mouse adipocyte cells, dose-dependent, FIG. 1). In data set [3], the “-Fold induction of GS activity” value was 3.3 -fold. The “activation of GS” value in data set [4] (myocytes, at 1 μM) is listed as 2 -fold; in data set [5] (adipocytes, at 1 μM) it was 4 -fold.

In the case of `COc1ccc(Nc2nccc(-c3sc(=O)n(C)c3C)n2)cc1` [Compound 24, 5-[2-(4-Methoxy-phenylamino)-pyrimidin-4-yl]-3,4-dimethyl-3H-thiazol-2-one], the IC50 was found to be 1100 nM at GSK-3β [1] (setting [6]); 760 nM at CDK2/cyclin E; 700 nM at CDK2/cyclin A; 970 nM against CDK1/cyclin B1; 1100 nM at CDK4/cyclin D1. Further, the “Selectivity, IC50 (CDK2/E)/IC50 (GSK3β)” value in the data set on GSK-3β [2] worked out at 0.7.

As to `Cc1c(-c2ccnc(Nc3ccc(F)c([N+](=O)[O-])c3)n2)sc(=O)n1C` [Compound 28, 5-[2-(4-Fluoro-3-nitro-phenylamino)-pyrimidin-4-yl]-3,4-dimethyl-3H-thiazol-2-one], the IC50 on GSK-3β [1] (setting [7]) is under 10 nM; at GSK-3β [1] (setting [6]) it was 2 nM; at CDK2/cyclin E, 170 nM; against CDK2/cyclin A it was 80 nM; at CDK1/cyclin B1, 1030 nM; against CDK4/cyclin D1, 1800 nM. The “Selectivity, IC50 (CDK2/E)/IC50 (GSK3β)” value in the data set with GSK-3β [2] amounted to 85.

Turning to `Cc1ccc(Nc2nccc(-c3sc(=O)n(C)c3C)n2)cc1[N+](=O)[O-]` [Compound 36, 3,4-Dimethyl-5-[2-(4-methyl-3-nitro-phenylamino)-pyrimidin-4-yl]-3H-thiazol-2-one], the melting point was 88.4 to 91.6 °C. Further, the IC50 on GSK-3β [1] (setting [7]) was under 100 nM. Also, the IC50 at GSK-3β [1] (setting [6]) came out at 30 nM. For the same molecule, the “Selectivity, IC50 (CDK2/E)/IC50 (GSK3β)” value in the data set on GSK-3β [2] is listed as 4.5. The IC50 on CDK2/cyclin E came out at 110 nM. Besides, the “-Fold induction of GS activity” value in data set [3] was 3.0 -fold. The IC50 against CDK1/cyclin B1 turned out to be 200 nM.

As to `Cc1c(-c2ccnc(Nc3ccc(N(C)C)cc3)n2)c(C)n(C)c1C#N` [Compound 38, 4-[2-(4-Dimethylamino-phenylamino)-pyrimidin-4-yl]-1,3,5-trimethyl-1H-pyrrole-2-carbonitrile], the IC50 worked out at 120 nM at GSK-3β [1] (setting [6]); 1100 nM at CDK2/cyclin E; 930 nM at CDK2/cyclin A; 2800 nM against CDK1/cyclin B1; 1300 nM against CDK4/cyclin D1. Moreover, in the data set with GSK-3β [2], the “Selectivity, IC50 (CDK2/E)/IC50 (GSK3β)” value came out at 9.2. The “-Fold induction of GS activity” value in [3] is on record as 1.3 -fold.

For the molecule `Cc1c(-c2ccnc(Nc3ccc(N(C)C)c([N+](=O)[O-])c3)n2)c(C)n(C)c1C#N` [Compound 39, 4-[2-(4-Dimethylamino-3-nitro-phenylamino)-pyrimidin-4-yl]-1,3,5-trimethyl-1H-pyrrole-2-carbonitrile], the IC50 at GSK-3β [1] (setting [7]) is under 100 nM; at GSK-3β [1] (setting [6]), 19 nM; on CDK2/cyclin E, 160 nM; against CDK2/cyclin A, 220 nM; on CDK1/cyclin B1, 180 nM; at CDK4/cyclin D1, 1400 nM. Moreover, the “Selectivity, IC50 (CDK2/E)/IC50 (GSK3β)” value with GSK-3β [2] worked out at 8.4. In [3], the “-Fold induction of GS activity” value was 3.0 -fold.
